Test results: US20220054658A1, “CONJUGATES” (Transfection Holdings Limited, priority 2018, published 2022)
Entries after “also recorded” stand apart in the source; their conditions may differ.

Legend:
[1] = tested on: human embryonic kidney cells (HEK293); test: Cytotoxicity against HEK293 cells (CellTitre-Glo); type: cell-based; details: 100 μM, HEK293, 24 hours
Experimental: A sample compound was incubated at 100 μM with human embryonic kidney cells (HEK293) in Greiner 384 cell star plates for 24 hours before adding CellTitre-Glo® (Promega), an indicator of cell viability giving a luminescent output. In this assay, compounds showing greater than 40% cytotoxicity over two test runs at 100 μM are deemed to have shown cytotoxicity.

T. brucei = test: Trypanosoma brucei testing: uptake; type: cell-based; details: 10-25 μM, 45 minutes, 37° C.
[2] = tested on: Gram-negative and Gram-positive bacteria; test: Bacteria testing: uptake in bacterial cultures; type: cell-based; details: 25 μM, 45 minutes, 37° C.
Staphylococcus aureus = test: Bacteria testing: uptake in Staphylococcus aureus; details: FIG. 2(g); 25 μM, 45 minutes, 37° C.
Experimental: (§1) Bacteria cultured by inoculating LB media (Thermo-Fisher) with the desired bacteria and incubating overnight at 37° C. under an atmosphere of air. The OD600 was then measured and the concentration of bacteria calculated from this. The cultures were then diluted appropriately to give a concentration of 2×10^5 cells per mL. 1 mL of this culture was placed in a 5 mL centrifuge tube then centrifuged at 13,000 rpm for 5 minutes. The supernatant was removed and replaced with 1 mL of 25 μM solution of compound in media. The cultures were incubated for 45 minutes at 37° C. The cultures were centrifuged as before, the supernatant removed and the pellet resuspended in 1 mL of PBS. The cells were washed in this manner twice more. After the final washing the pellet was resuspended in 35 μL of water and spotted onto a slide. The slide was then protected with a coverslide before the images were analysed using an Olympus UV microscope system with a Leica imaging analysis software with a FITC fluorescent filter.

Enterococcus faecalis = test: Bacteria testing: uptake in Enterococcus faecalis; details: FIG. 2(f); 25 μM, 45 minutes, 37° C.
Experimental: as §1

Escherichia coli = test: Bacteria testing: uptake in Escherichia coli; details: FIG. 2(e); 25 μM, 45 minutes, 37° C.
Experimental: as §1

B. bovis Texas strain = test: Short-term uptake test in B. bovis infected RBCs (confocal microscopy)
Experimental: The parasite culture was centrifuged and washed once with GIT medium. RBC's were pellet down, and 20 μl infected RBC mixture (10 μl packed infected RBC+10 μl GIT) was prepared. Then, 180 μl GIT medium with compound the compound to be evaluated (final concentration 25 μM for BODIPY derivatives and 100 μM for phiLOV derivatives) or DMSO (0.1%)/PBS control was added. The samples were incubated for 45 min at 37° C. (Samples were stained 1 μg/mL diluted Hoechst 33342 in GIT medium). After incubation, the samples were centrifuged and the pellet was washed with GIT medium (3×). A final solution of 50% haematocrit infected RBC mixture was transferred to slides to be observed by confocal laser microscopy (Nikon A1).
Uptake experiments were performed by incubating the parasite (˜5% Parasitized Erythrocytes (PPE)) with each derivative at 25 μM and 37° C. for 45 min. After incubation, the fluorescence intensities were calculated from confocal microscope images.
The phiLOV double mutant (R475G, K476C) was used to generate derivatives P11, P1, P8, and P3 which were tested for uptake in B. bovis Texas strain using phiLOV as a control. The derivatives and the control were incubated at 100 μM and 37° C. for 45 min. After incubation, the samples were analysed under confocal microscopy using Hoeschst 33342 (Thermofisher) as co-stain.

T. annulata = test: Theileria annulata testing: uptake; type: cell-based; details: 1 hour, 37° C.
Experimental: T. annulata were cultured using RPMI 1640 with 10% Albumax II (Thermo-Fisher) serum. A standard hemocytometer was used to calculate the concentration of cells in the parent culture. […] For each compound and concentration to be tested, 2 mL of the culture were centrifuged at 1,000 rpm for 5 minutes. The medium was removed before the cells were resuspended in 950 μL of complete medium containing the compound to be tested at the desired concentration. This was prepared from a 100 mM stock solution of compound in DMSO. Once the cells were resuspended they were transferred to a 5 well plate (1 mL capacity per well). They were then incubated for 1 hour at 37° C. in an atmosphere of 5% CO2 in air. After the incubations were complete the contents of each well were transferred to a 10 mL centrifuge tube. Cold RPMI 1640 (Thermofisher) or HBSS added to obtain a volume of 5 mL. The suspension was then centrifuged at 1,000 rpm and at 4° C. for 5 minutes. […] After the final washing the pellet of cells was resuspended in a minimum amount of RPMI 1640 and then spotted onto a glass slide. The slide was then covered with a cover slip and analysed using Olympus BX60 UV microscope system with a Spot RT3 camera and Spot Image software with a FITC fluorescent filter.

P. falciparum = test: Plasmodium falciparum testing: uptake by infected and non-infected red blood cells; type: cell-based; details: 25 μM, 45 minutes, 37° C., synchronised stage and mix-stage cultures
Experimental: Compounds 1, 5, 9, 10 and 11 were tested for uptake in both synchronised stage and mix-stage cultures at 25 μM concentrations.

L. passim strain PRA-403 = test: Lotmaria passim parasite uptake test; type: cell-based; details: 1 μM and 100 μM, room temperature, 45 min
Experimental: 100 mM stock solutions of BODIPY derivatives were prepared with dimethylsulfoxide (DMSO). L passim strain PRA-403 (ATCC) was cultured in modified medium for C. bombi (Tognazzo et al.). The parasite culture was centrifuged, supernatant was removed and 500 μL of L passim medium with compound (final concentration 500, 100, 10 or 1 μM for BODIPY derivatives) or DMSO (0.1%) control was added. Incubated for 45 min at room temperature.
Uptake tests were performed at 1 μM and 100 μM final concentration of CJ-BODIPY derivatives. After incubation at room temperature for 45 min, fluorescence intensities were evaluated using a microplate reader.

C. elegans = test: Conjugate uptake in C. elegans (dye and praziquantel conjugates, fluorescence microscopy); type: in vivo, Caenorhabditis elegans; details: for uptake: location of fluorescence in C. elegans: 50 μM
Experimental: Nematode Growth Media (NGM) plates containing C. elegans were washed with 1.0-1.5 mL of standard M9 buffer and the washes were collected in an Eppendorf tube. The liquid containing the C. elegans was then spun for 1 min at room temperature at 10,000 rpm. The supernatant was removed, and fresh M9 buffer was added (500 μL) to generate a new stock solution of M9 buffer containing the C. elegans.
A C. elegans suspension (100 μL) was added a defined amount of M9 buffer (determined by the final desired concentration of compound to be tested: 399 μL in the case of the BODIPY tagged derivatives) contained within a separate Eppendorf tube. To this was then added a 25 mM solution of the compound in DMSO (1 μL). The resulting suspension was mixed using a vortex instrument.
The resulting mixture was incubated at room temperature for 2 to 4 h. in the dark (using aluminium foil to screen the tube, which was also stored in a cabinet).
Other samples were incubated overnight. Here, OP50 bacteria (3 μL) were added to the worms for feeding purposes, and the worms were kept in the dark at 20° C.
After the incubation, the tube contents were mixed gently by hand (typically by simple rotation of the tube), so as to achieve a homogenous suspension. A sample of the suspension (250 μL) was taken and mixed with M9 buffer (500 μL). The resulting suspension was placed in a centrifuge and spun at room temperature at 10,000 rpm for 1 min. The supernatant was removed, and the washing process was repeated twice more, each time using further quantities of fresh M9 buffer (500 μL each time). After the final washing sufficient supernatant was removed so as to leave a final sample volume of approximate 30 μL.
A 1.5% agarose solution in water was pre-warmed for 60 to 90 s. in a standard household style microwave (set to Power 4). Two drops of this solution was removed and placed on a glass slide. The glass slide was covered with a second glass slide. After 1 min., the slides were slid carefully apart, with the agarose remaining on one of the slides. Onto this slide was placed an aliquot of the final C. elegans solution (15 to 20 μL). To this was added a 20 mM sodium azide solution (5 μL) to inhibit nematode mobility. Vaseline was then placed around the agarose area before replacing the second slide. The slides were not pressed together.
The nematodes were then analysed using a Zeiss Axiskop 2 Plus microscope with a Hamamatsu Orca-ER (CA 742-95) camera. The images were resolved using OpenLab on a Mac operating system.
Compounds 1-11 were evaluated after 3 h and overnight incubation at a 50 μM concentration using the general uptake protocol described for C. elegans.
In order to compare the ability of a conjugate to improve the uptake of the drug praziquantel, two praziquantel derivatives were generated. Praziquantel was tagged with a BODIPY fluorescent tag (compound 12) and incorporated into a conjugate of the invention (compound 13). Compounds 12 and 13 were evaluated at a concentration of 50 μM using the C. elegans uptake protocol described above for compounds 1-11. Microscopic readings were taken after 3, 24 and 72 h.

Theileria parva = test: Uptake in erythrocyte infected with Theileria parva (FIG. 2(b)); type: cell-based

| Structure (SMILES) | outcome in the cytotoxicity screen [1] | cytotoxicity ([1]; CellTitre-Glo, greater than 40% deemed cytotoxic) [%] | uptake in T. brucei (T. brucei) | uptake in bacterial cultures [2] | uptake by Staphylococcus aureus (Staphylococcus aureus) | uptake by Enterococcus faecalis (Enterococcus faecalis) | uptake by Escherichia coli (Escherichia coli) | uptake compared to compound 1 (% less) (B. bovis Texas strain; 25 μM, 37° C., 45 min, ~5% PPE) [%] | uptake by non-infected erythrocytes (B. bovis culture) (B. bovis Texas strain; FIG. 2(a)) | uptake in T. annulata (T. annulata) | uptake by infected and non-infected red blood cells (P. falciparum) | uptake in L. passim (fluorescence intensity, microplate reader) (L. passim strain PRA-403) | uptake: location of fluorescence in C. elegans (C. elegans; 3 h incubation) | uptake: location of fluorescence in C. elegans (C. elegans; 20 h / overnight incubation) | distribution in C. elegans (C. elegans; FIG. 2(h), fluorescence microscopy) | accumulation in Theileria parva infected erythrocyte (Theileria parva) |
| --- | --- | --- | --- | --- | --- | --- | --- | --- | --- | --- | --- | --- | --- | --- | --- | --- |
| CC1(C)OCC(C)(C)C(C(=O)N/C=C/C(=O)NCCCCCO[Si](c2ccccc2)(c2ccccc2)C(C)(C)C)O1 (stereo not shown) | inactive in the screen | 3.7±0.6 | – | – | – | – | – | – | – | – | – | – | – | – | – | – |
| CC1=CC(C)=[N+]2C1=Cc1ccc(CCCn3cc(CCNC(=O)/C=C/NC(=O)[C@H](O)C(C)(C)CO)nn3)n1[B-]2(F)F [Compound 5, (R,E)-N-((((3-[4,4-Difluoro-5,7-dimethyl-4-bora-3a,4a-diaza-s-indacene-3-yl]propyl)-1H-1,2,3-triazol-4-yl)ethylamino)-3-oxoprop-1-enyl)-2,4-dihydroxy-3,3-dimethylbutanamide] | – | – | taken up by T. brucei and forms small vesicles all over the trypanosome body, whilst not accumulating neither in the lysosome nor in the nucleus, but rather in a vesicle between the flagellar pocket and the lysosome; also recorded: taken up by T. brucei and forms small vesicles all over the trypanosome body | Uptake was seen both in the case of Gram-negative and Gram-positive bacteria | uptake of the conjugate by the organism | uptake of the conjugate by the organism | uptake of the conjugate by the organism | 30 | Non-infected erythrocytes do not take up the conjugate | taken up by T. annulata; also recorded: selectively accumulated within the intracellular parasite | selectively taken up by infected red blood cells; also recorded: accumulated within the parasite itself; also recorded: Non-infected erythrocytes do not take up the conjugate | relatively low uptake | small amounts of compound 5 were present in the gut cells, and the gut lumen of the larval stages, as well as in the pharynx, gut lumen and gut cells of adult nematodes; also recorded: not detected in the embryos | fluorescence remained in the pharynx, gut cells and gut lumen of both the larval and adult stages; also recorded: Fluorescence was also detected in the early stage of egg development, but not in the embryos | localised with the digestive track of C. elegans | seen to accumulate within the parasite |
